The text below walks through data of patent US11739074B2, “Ras inhibitors” (Revolution Medicines, Inc., priority 2019, dated 2023).

What all share (format): cell-based
One experiment relates to NCI-H358 (K-Ras G12C). The experiment can be described thus: CellTiter-Glo cell viability assay, H358. Particulars: Homo sapiens, NCI-H358, 120 h, NCI-H358, K-Ras G12C, 5-day treatment; read-out: H358 Cell Viability IC50. As to the method: Determination of Cell Viability in RAS Mutant Cancer Cell Lines
Protocol: CellTiter-Glo® Cell Viability Assay
Note—The following protocol describes a procedure for monitoring cell viability of K-Ras mutant cancer cell lines in response to a compound of the invention. Other RAS isoforms may be employed, though the number of cells to be seeded will vary based on cell line used.
Test compounds (132.5 nL) were directly dispensed into the assay plates containing cells. […] On day 5, assay plates and their contents were equilibrated to room temperature for approximately 30 minutes. […] Luminescence was measured using the PerkinElmer Enspire. Data were normalized by the following: (Sample signal/Avg. DMSO)*100. The data were fit using a four-parameter logistic fit.

For experiment [1], the system named is AsPC-1 (K-Ras G12D). The experiment can be described thus: CellTiter-Glo cell viability assay, AsPC-1. Particulars: Homo sapiens, ASPC1, 120 h. An outline of the steps: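 Test compounds were dispensed directly onto seeded cells, and on day 5 plates were brought to room temperature for about 30 minutes before CellTiter-Glo luminescence was read. Signals were expressed as percent of the mean DMSO control and fitted with a four-parameter logistic model.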

Experiment [2] concerns AsPC-1 (K-Ras G12D). Nature of the experiment: Potency assay: pERK in AsPC-1 cells. Particulars: Homo sapiens.
[3] abbreviates: AsPC-1, K-Ras G12D, 5-day treatment, read-out: AsPC-1 Cell Viability IC50.
[4] abbreviates: ASPC1, AsPC-1 cells, K-Ras G12D, read-out: pERK EC50 (AsPC-1 KRAS G12D).

Read-outs that look alike come from different tables or passages of the source.

Turning to `CCn1c(-c2cnccc2COC)c2c3cc(ccc31)-c1cc(O)cc(c1)C[C@H](NC(=O)[C@H](C(C)C)N(C)C(=O)C1CN(C(=O)[C@H]3CN3)C1)C(=O)N1CCC[C@H](N1)C(=O)OCC(C)(C)C2` [Compound 5], the half-inhibitory concentration (IC50) with NCI-H358 (K-Ras G12C) is 10 to 100 nM; in the experiment on AsPC-1 (K-Ras G12D) [1] (setting [3]) it was over 10000 nM.

For `CCn1c(-c2cnccc2COC)c2c3cc(ccc31)-c1cc(O)cc(c1)C[C@H](NC(=O)[C@H](C(C)C)N(C)C(=O)C1CN(C(=O)[C@@H]3CN3)C1)C(=O)N1CCC[C@H](N1)C(=O)OCC(C)(C)C2` [Compound 6], the 50% inhibitory concentration (IC50) in the experiment with NCI-H358 (K-Ras G12C) was 100 to 1000 nM; in the experiment with AsPC-1 (K-Ras G12D) [1] (setting [3]), over 10000 nM.

Take `CCn1c(-c2cnccc2COC)c2c3cc(ccc31)-c1cccc(c1)C[C@H](NC(=O)[C@H](C(C)C)N(C)C(=O)CCN=C=NCc1c(OC)cccc1OC)C(=O)N1CCC[C@H](N1)C(=O)OCC(C)(C)C2` [62 A and B]: the half-maximal inhibitory concentration (IC50) in the experiment on NCI-H358 (K-Ras G12C) and in the experiment on AsPC-1 (K-Ras G12D) [1] (setting [3]) was 1000 to 10000 nM each time.

With `CCn1c(-c2cnccc2COC)c2c3cc(ccc31)-c1cccc(c1)C[C@H](NC(=O)[C@H](C(C)C)N(C)C(=O)CCN=C=NCc1ccccc1)C(=O)N1CCC[C@H](N1)C(=O)OCC(C)(C)C2` [19 A and B], the results for the 50% inhibitory concentration (IC50) in the experiment with NCI-H358 (K-Ras G12C) and in the experiment on AsPC-1 (K-Ras G12D) [1] (setting [3]) were 1000 to 10000 nM and 100 to 1000 nM, respectively.

As for `CCn1c(-c2cnccc2COC)c2c3cc(ccc31)-c1cccc(c1)C[C@H](NC(=O)[C@H](C(C)C)N(C)C(=O)CCN=C=Nc1ccc(N(C)C)cc1)C(=O)N1CCC[C@H](N1)C(=O)OCC(C)(C)C2` [Compound 66], the results for the IC50 in the experiment with NCI-H358 (K-Ras G12C) and in the experiment on AsPC-1 (K-Ras G12D) [1] (setting [3]) were 1000 to 10000 nM and over 10000 nM, respectively.

As to `CCn1c(-c2cnccc2COC)c2c3cc(ccc31)-c1cccc(c1)C[C@H](NC(=O)[C@H](C(C)C)N(C)C(=O)CCN=C=NCc1ccc(OC)cc1)C(=O)N1CCC[C@H](N1)C(=O)OCC(C)(C)C2` (atropisomer, axis not shown) [18 A and B], the concentration for half-maximal inhibition (IC50) in the experiment on NCI-H358 (K-Ras G12C) and in the experiment on AsPC-1 (K-Ras G12D) [1] (setting [3]) was 1000 to 10000 nM in each case.

With `CCn1c(-c2cnccc2COC)c2c3cc(ccc31)-c1cc(O)cc(c1)C[C@H](NC(=O)[C@H](C(C)C)N(C)C(=O)C1CCN(C(=O)[C@H]3CN3)CC1)C(=O)N1CCC[C@H](N1)C(=O)OCC(C)(C)C2` [Compound 3], the figures for the IC50 in the experiment on NCI-H358 (K-Ras G12C) and in the experiment with AsPC-1 (K-Ras G12D) [1] (setting [3]) were 100 to 1000 nM and over 10000 nM, respectively.

For `CCn1c(-c2cnccc2COC)c2c3cc(ccc31)-c1cc(O)cc(c1)C[C@H](NC(=O)[C@H](C(C)C)N(C)C(=O)CCN(C)C(=O)[C@@H]1CN1)C(=O)N1CCC[C@H](N1)C(=O)OCC(C)(C)C2` [Compound 40], the concentration for half-maximal inhibition (IC50) in the experiment with NCI-H358 (K-Ras G12C) is 100 to 1000 nM; with AsPC-1 (K-Ras G12D) [1] (setting [3]), over 10000 nM.

On to `CCn1c(-c2cnccc2COC)c2c3cc(ccc31)-c1cccc(c1)C[C@H](NC(=O)[C@H](C(C)C)N(C)C(=O)CCN=C=Nc1ccc(OC)cc1OC)C(=O)N1CCC[C@H](N1)C(=O)OCC(C)(C)C2` [24 A and B], for which the half-inhibitory concentration (IC50) with NCI-H358 (K-Ras G12C) was 1000 to 10000 nM; with AsPC-1 (K-Ras G12D) [1] (setting [3]) it was over 10000 nM.

`CCn1c(-c2cnccc2COC)c2c3cc(ccc31)-c1cc(O)cc(c1)C[C@H](NC(=O)[C@H](C(C)C)N(C)C(=O)N1CCCN(C(=O)[C@@H]3CN3)CC1)C(=O)N1CCC[C@H](N1)C(=O)OCC(C)(C)C2` [Compound 45]: the half-inhibitory concentration (IC50) in the experiment on NCI-H358 (K-Ras G12C) is 100 to 1000 nM; with AsPC-1 (K-Ras G12D) [1] (setting [3]), over 10000 nM.

Take `CCn1c(-c2cnccc2COC)c2c3cc(ccc31)-c1cc(O)cc(c1)C[C@H](NC(=O)[C@H](C(C)C)N(C)C(=O)[C@H]1CCN(C(=O)[C@@H]3CN3)C1)C(=O)N1CCC[C@H](N1)C(=O)OCC(C)(C)C2` [Compound 2]: the half-maximal inhibitory concentration (IC50) in the experiment with NCI-H358 (K-Ras G12C) is 10 to 100 nM; in the experiment with AsPC-1 (K-Ras G12D) [1] (setting [3]), over 10000 nM.

Regarding `CCn1c(-c2cnccc2COC)c2c3cc(ccc31)-c1cccc(c1)C[C@H](NC(=O)[C@H](C(C)C)N(C)C(=O)CCN=C=NCCCSC)C(=O)N1CCC[C@H](N1)C(=O)OCC(C)(C)C2` [16 A and B], the half-inhibitory concentration (IC50) in the experiment on NCI-H358 (K-Ras G12C) and in the experiment on AsPC-1 (K-Ras G12D) [1] (setting [3]) was 1000 to 10000 nM throughout.

In the case of `CCn1c(-c2cnccc2COC)c2c3cc(ccc31)-c1cc(O)cc(c1)C[C@H](NC(=O)[C@H](C(C)C)N(C)C(=O)CCN(C)C(=O)[C@H]1CN1)C(=O)N1CCC[C@H](N1)C(=O)OCC(C)(C)C2` (single isomer, unassigned) [Compound 41], the IC50 in the experiment with NCI-H358 (K-Ras G12C) is 10 to 100 nM; in the experiment with AsPC-1 (K-Ras G12D) [1] (setting [3]) it was over 10000 nM.

As for `CCn1c(-c2cnccc2COC)c2c3cc(ccc31)-c1cc(O)cc(c1)C[C@H](NC(=O)[C@H](C(C)C)N(C)C(=O)C1CCN(C(=O)[C@@H]3CN3)CC1)C(=O)N1CCC[C@H](N1)C(=O)OCC(C)(C)C2` [Compound 4], the IC50 with NCI-H358 (K-Ras G12C) is 100 to 1000 nM; in the experiment with AsPC-1 (K-Ras G12D) [1] (setting [3]) it was over 10000 nM.

In the case of `CCn1c(-c2cnccc2COC)c2c3cc(ccc31)-c1cc(O)cc(c1)C[C@H](NC(=O)[C@H](C(C)C)N(C)C(=O)c1ccc(NC(=O)[C@@H]3CN3)cn1)C(=O)N1CCC[C@H](N1)C(=O)OCC(C)(C)C2` [Compound 46], the half-maximal inhibitory concentration (IC50) was 100 to 1000 nM with NCI-H358 (K-Ras G12C) and over 10000 nM in the experiment with AsPC-1 (K-Ras G12D) [1] (setting [3]).

Take `CCn1c(-c2cccnc2[C@H](C)OC)c2c3cc(ccc31)-c1cc(O)cc(c1)C[C@H](NC(=O)[C@H](C(C)C)N(C)C(=O)[C@]13C[C@H]1CCN3C(=O)[C@H]1CN1)C(=O)N1CCC[C@H](N1)C(=O)OCC(C)(C)C2` [Compound 244]: the 50% effective concentration (EC50) in the experiment on AsPC-1 (K-Ras G12D) [2] (setting [4]) was under 5000 nM. Also, the IC50 with AsPC-1 (K-Ras G12D) [1] (setting [3]) lay in the range of 1000 to 10000 nM.

In the case of `CCn1c(-c2cccnc2[C@H](C)OC)c2c3cc(ccc31)-c1cc(O)cc(c1)C[C@H](NC(=O)[C@H](C(C)C)N(C)C(=O)[C@H]1CCCN1C(=O)[C@H]1CN1)C(=O)N1CCC[C@H](N1)C(=O)OCC(C)(C)C2` [Compound 152], in the experiment with AsPC-1 (K-Ras G12D) [2] (ASPC1, read-out: pERK EC50 (AsPC-1 KRAS G12D)), the 50% effective concentration (EC50) was under 5000 nM. The IC50 with AsPC-1 (K-Ras G12D) [1] (read-out: AsPC-1 Cell Viability IC50, AsPC-1, K-Ras G12D, 5-day treatment) fell in the range of 1000 to 10000 nM.

On to `CCn1c(-c2cccnc2[C@H](C)OC)c2c3cc(ccc31)-c1cc(O)cc(c1)C[C@H](NC(=O)[C@H](C(C)C)N(C)C(=O)[C@H]1C[C@@H]3N[C@@H]3C1)C(=O)N1CCC[C@H](N1)C(=O)OCC(C)(C)C2` [Compound 286], for which the EC50 with AsPC-1 (K-Ras G12D) [2] (setting [4]) was under 5000 nM. For the same compound, the IC50 in the experiment on AsPC-1 (K-Ras G12D) [1] (setting [3]) is 1000 to 10000 nM.

In the case of `CCn1c(-c2cccnc2[C@H](C)OC)c2c3cc(ccc31)-c1cc(O)cc(c1)C[C@H](NC(=O)[C@H](C(C)C)N(C)C(=O)c1ccc([C@@H]3CN3)nc1)C(=O)N1CCC[C@H](N1)C(=O)OCC(C)(C)C2` [Example 87, 6-((S)-aziridin-2-yl)-N-((2S)-1-(((6^3S,4S)-1^1-ethyl-2^5-hydroxy-1^2-(2-((S)-1-methoxyethyl)pyridin-3-yl)-10,10-dimethyl-5,7-dioxo-6^1,6^2,6^3,6^4,6^5,6^6-hexahydro-1^1H-8-oxa-1(5,3)-indola-6(1,3)-pyridazina-2(1,3)-benzenacycloundecaphane-4-yl)amino)-3-methyl-1-oxobutan-2-yl)-N-methylnicotinamide], the concentration giving a half-maximal response (EC50) in the experiment on AsPC-1 (K-Ras G12D) [2] (setting [4]) was under 5000 nM. In the experiment on AsPC-1 (K-Ras G12D) [1] (setting [3]), the IC50 was in the range of 1000 to 10000 nM.

In the case of `CCn1c(-c2cccnc2[C@H](C)OC)c2c3cc(ccc31)-c1cc(O)cc(c1)C[C@H](NC(=O)[C@H](C(C)C)N(C)C(=O)C1CCN(C(=O)[C@H]3CN3)CC1)C(=O)N1CCC[C@H](N1)C(=O)OCC(C)(C)C2` [Compound 86], the 50% effective concentration (EC50) in the experiment on AsPC-1 (K-Ras G12D) [2] (setting [4]) was under 5000 nM. The IC50 with AsPC-1 (K-Ras G12D) [1] (setting [3]) is 1000 to 10000 nM.

`CCn1c(-c2cccnc2[C@H](C)OC)c2c3cc(ccc31)-c1cc(O)cc(c1)C[C@H](NC(=O)[C@H](C1CCCC1)N(C)C(=O)[C@@H](C)N(C)C(=O)[C@@H]1N[C@@H]1C1CC1)C(=O)N1CCC[C@H](N1)C(=O)OCC(C)(C)C2` [Compound 327]: the concentration giving a half-maximal response (EC50) in the experiment with AsPC-1 (K-Ras G12D) [2] (setting [4]) was under 5000 nM. Further, in the experiment with AsPC-1 (K-Ras G12D) [1] (setting [3]), the IC50 lay within 1000 to 10000 nM.

Regarding `CCn1c(-c2cccnc2[C@H](C)OC)c2c3cc(ccc31)-c1cccc(c1)C[C@H](NC(=O)[C@H](C(C)C)N(C)C(=O)[C@H]1C[C@H](N=C=NCCOC)C1)C(=O)N1CCC[C@H](N1)C(=O)OCC(C)(C)C2` [Compound 78], the EC50 in the experiment with AsPC-1 (K-Ras G12D) [2] (setting [4]) was under 5000 nM. Besides, the concentration for half-maximal inhibition (IC50) with AsPC-1 (K-Ras G12D) [1] (setting [3]) was 1000 to 10000 nM.
